Literature values as cited in patent publication US20090291140A1, “TREATMENT OF DY[…] TRANSDERMAL ADMINISTRATION OF NONSTEROIDAL ANTI-INFLAMMATORY DRUGS” (priority 2008, published 2009).

Molecular target: T1, 5-lipoxygenase (Homo sapiens, UniProt P09917)
T1 sequence (P09917 1-674): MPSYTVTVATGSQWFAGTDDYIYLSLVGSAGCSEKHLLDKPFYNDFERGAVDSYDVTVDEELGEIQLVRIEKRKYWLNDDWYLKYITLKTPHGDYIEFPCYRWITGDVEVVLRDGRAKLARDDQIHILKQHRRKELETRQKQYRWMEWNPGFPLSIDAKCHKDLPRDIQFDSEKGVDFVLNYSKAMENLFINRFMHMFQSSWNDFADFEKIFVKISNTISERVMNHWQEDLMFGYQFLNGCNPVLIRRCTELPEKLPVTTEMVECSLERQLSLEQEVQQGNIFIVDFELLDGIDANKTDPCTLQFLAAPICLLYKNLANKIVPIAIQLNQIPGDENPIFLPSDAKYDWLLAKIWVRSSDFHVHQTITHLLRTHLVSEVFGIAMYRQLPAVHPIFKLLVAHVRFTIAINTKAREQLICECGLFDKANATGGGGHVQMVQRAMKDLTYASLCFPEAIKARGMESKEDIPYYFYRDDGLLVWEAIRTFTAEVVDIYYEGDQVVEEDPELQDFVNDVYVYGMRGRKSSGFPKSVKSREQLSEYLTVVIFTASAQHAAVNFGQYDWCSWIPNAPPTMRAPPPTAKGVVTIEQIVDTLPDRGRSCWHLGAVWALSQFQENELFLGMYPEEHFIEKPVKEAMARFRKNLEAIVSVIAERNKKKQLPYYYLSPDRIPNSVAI
Details: in-vitro studies

SMILES: Cc1ccc(Cl)c(Nc2ccccc2C(=O)O)c1Cl [meclofenamate]
- inhibition of the activity of 5-lipoxygenase: inhibit the activity of 5-lipoxygenase
